Laboratory results as given in patent publication US20250144067A1, “PERSONALIZED STARVATION THERAPY FOR CANCER” (Faeth Therapeutics, Inc., priority 2021, published 2025).
Counter-ions that a name gives are not always drawn.

Assays:
[1] = test system: NCI-H292 lung cancer cells; assay: FDA drug screening, complete media vs cholesterol-free media without statin (TABLE 1); format: cell-based, human
[2] = test system: NCI-H292 lung cancer cells; assay: FDA drug screening, complete media vs cholesterol-free media with simvastatin (TABLE 2); format: cell-based, human; conditions: for Cholesterol-free media + simvastatin (0.04 μM) / Complete Media: NCI-H292 cells
[3] = NCI-H292 cells, cholesterol-free media without statin
[4] = complete vs cholesterol-free media, greater than 0 enhanced anti-cancer activity, about 0 neutral, below 0 antagonists
[5] = FDA library drug in cholesterol-free media with simvastatin 0.04 μM
[6] = FDA library drug in complete media
[7] = complete media vs cholesterol-free media + simvastatin (0.04 μM), >0 enhanced anti-cancer activity, about 0 neutral, <0 antagonist
[8] = Complete minus Cholesterol-free, >0 enhanced anti-cancer activity, about 0 neutral, <0 antagonist
[9] = NCI-H292 cells, cholesterol-free media without statin, FDA drug library screen
[10] = NCI-H292 cells, complete media, FDA drug library screen
[11] = FDA drug library screen, cholesterol-free media with simvastatin 0.04 μM
[12] = FDA drug library screen, complete media
[13] = complete media minus cholesterol-free media + simvastatin, >0 enhanced anti-cancer activity, about 0 neutral, <0 antagonist
[14] = Complete minus Cholesterol-free, […]
[15] = NCI-H292 cells in cholesterol-free media without statin
[16] = NCI-H292 cells in complete media
[17] = cholesterol-free media with simvastatin 0.04 μM, FDA drug library screen (TABLE 2)
[18] = complete media, FDA drug library screen (TABLE 2)
[19] = complete vs cholesterol-free media, […]
[20] = complete media vs cholesterol-free media + simvastatin (0.04 μM), […]
[21] = Complete minus Cholesterol-free, greater than 0 enhanced anti-cancer activity, about 0 neutral, below 0 antagonists
[22] = drug in cholesterol-free media with simvastatin 0.04 μM
[23] = complete vs cholesterol-free media, >0 enhanced anti-cancer activity, about 0 neutral, <0 antagonist
[24] = cholesterol-free media with simvastatin 0.04 μM, cell growth value in FDA drug screen
[25] = complete media, cell growth value in FDA drug screen

## CC(C)OC(=O)OCOP(=O)(CO[C@H](C)Cn1cnc2c(N)ncnc21)OCOC(=O)OC(C)C.O=C(O)/C=C/C(=O)O [Tenofovir (Disoproxil Fumarate)]
[1]; [3]
  Cholesterol-free: 1.163
[1]; NCI-H292 cells, complete media
  Complete: 0.7425
[1]; [4]
  Difference: −0.42
[2]; [5]
  Cholesterol-free media + simvastatin (0.04 μM): 1.321
[2]; [6]
  Complete Media: 0.7221
[2]; [7]
  Difference: −0.60

## O=P(O)(O)C(Cl)(Cl)P(=O)(O)O [Clodronic acid (disodium salt)]
[1]; [8]
  Difference: 0.00
[1]; [9]
  Cholesterol-free: 0.9505
[1]; [10]
  Complete: 0.955
[2]; [5]
  Cholesterol-free media + simvastatin (0.04 μM): 1.883
[2]; [6]
  Complete Media: 1.075
[2]; [7]
  Difference: −0.81

## CC(=O)N1CCN(c2ccc(OCC3COC(Cn4ccnc4)(c4ccc(Cl)cc4Cl)O3)cc2)CC1 (centres unmarked) [Ketoconazole]
[1]; [3]
  Cholesterol-free: 1.003
[1]; NCI-H292 cells, complete media
  Complete: 0.6148
[1]; [4]
  Difference: −0.39
[2]; [11]
  Cholesterol-free media + simvastatin (0.04 μM): 0.2012
[2]; [12]
  Complete Media: 0.801
[2]; [13]
  Difference: 0.60

## Varenicline (Tartrate)
[1]; [14]
  Difference: −0.52
[1]; [15]
  Cholesterol-free: 1.334
[1]; [16]
  Complete: 0.8157
[2]; [17]
  Cholesterol-free media + simvastatin (0.04 μM): 1.729
[2]; [18]
  Complete Media: 1.705
[2]; complete media minus cholesterol-free media + simvastatin (0.04 μM), […]
  Difference: −0.02

## CC[C@H](C)[C@@H]1NC(=O)[C@H](Cc2ccc(O)cc2)NC(=O)[C@@H](N)CSSC[C@@H](C(=O)N2CCC[C@H]2C(=O)N[C@@H](CC(C)C)C(=O)NCC(N)=O)NC(=O)[C@H](CC(N)=O)NC(=O)[C@H](CCC(N)=O)NC1=O [Oxytocin]
[1]; [3]
  Cholesterol-free: 1.585
[1]; NCI-H292 cells, complete media
  Complete: 1.211
[1]; [19]
  Difference: −0.37
[2]; [11]
  Cholesterol-free media + simvastatin (0.04 μM): 1.057
[2]; [12]
  Complete Media: 0.9051
[2]; [20]
  Difference: −0.15

## Cc1nc2n(c(=O)c1CCN1CCC(c3noc4cc(F)ccc34)CC1)CCCC2O (centres unmarked) [Paliperidone]
[1]; Complete minus Cholesterol-free, greater than 0 enhanced anti-cancer activity, about 0 neutral, below 0 antagonist
  Difference: −0.18
[1]; NCI-H292 cells, FDA drug library screen, cholesterol-free media without statin
  Cholesterol-free: 0.8391
[1]; NCI-H292 cells, FDA drug library screen, complete media
  Complete: 0.6569
[2]; [5]
  Cholesterol-free media + simvastatin (0.04 μM): 1.086
[2]; [6]
  Complete Media: 0.8023
[2]; [7]
  Difference: −0.28

## CC[C@H]1OC(=O)[C@H](C)[C@@H](O[C@H]2C[C@@](C)(OC)[C@@H](O)[C@H](C)O2)[C@H](C)[C@@H](O[C@@H]2O[C@H](C)C[C@H](N(C)C)[C@H]2O)[C@](C)(O)C[C@@H](C)C(=O)[C@H](C)[C@@H](O)[C@]1(C)O [Erythromycin]
[1]; [21]
  Difference: −0.99
[1]; [15]
  Cholesterol-free: 1.913
[1]; [16]
  Complete: 0.9269
[2]; [22]
  Cholesterol-free media + simvastatin (0.04 μM): 1.202
[2]; drug in complete media
  Complete Media: 0.9929
[2]; [7]
  Difference: −0.21

## CO[C@H]1/C=C/O[C@@]2(C)Oc3c(C)c(O)c4c(c3C2=O)C2=NC3(CCN(CC(C)C)CC3)NC2=C(NC(=O)/C(C)=C\C=C\[C@H](C)[C@H](O)[C@@H](C)[C@@H](O)[C@@H](C)[C@H](OC(C)=O)[C@@H]1C)C4=O [Rifabutin]
[1]; [9]
  Cholesterol-free: 0.7322
[1]; [10]
  Complete: 0.8211
[1]; [23]
  Difference: 0.09
[2]; [22]
  Cholesterol-free media + simvastatin (0.04 μM): 1.205
[2]; drug in complete media
  Complete Media: 0.9499
[2]; [7]
  Difference: −0.26

## CN(C/C=C/C#CC(C)(C)C)Cc1cccc2ccccc12 [Terbinafine]
[1]; [9]
  Cholesterol-free: 1.229
[1]; [10]
  Complete: 1.421
[1]; [23]
  Difference: 0.19
[2]; [11]
  Cholesterol-free media + simvastatin (0.04 μM): 1.066
[2]; [12]
  Complete Media: 0.9483
[2]; [7]
  Difference: −0.12

## c1cc(CN2CCCNCCNCCCNCC2)ccc1CN1CCCNCCNCCCNCC1 [Plerixafor]
[1]; [3]
  Cholesterol-free: 1.296
[1]; NCI-H292 cells, complete media
  Complete: 0.935
[1]; [4]
  Difference: −0.36
[2]; [11]
  Cholesterol-free media + simvastatin (0.04 μM): 1.17
[2]; [12]
  Complete Media: 1.011
[2]; [7]
  Difference: −0.16

## C[C@H](Oc1cc(-c2cnn(C3CCNCC3)c2)cnc1N)c1c(Cl)ccc(F)c1Cl [(S)-Crizotinib]
[1]; [14]
  Difference: 0.02
[1]; [9]
  Cholesterol-free: 1.253
[1]; [10]
  Complete: 1.275
[2]; [11]
  Cholesterol-free media + simvastatin (0.04 μM): 1.094
[2]; [12]
  Complete Media: 0.9518
[2]; [20]
  Difference: −0.14

## Rilmenidine (hemifumarate)
[1]; [3]
  Cholesterol-free: 1.211
[1]; NCI-H292 cells, complete media
  Complete: 0.771
[1]; [19]
  Difference: −0.44
[2]; [5]
  Cholesterol-free media + simvastatin (0.04 μM): 1.87
[2]; [6]
  Complete Media: 1.431
[2]; [20]
  Difference: −0.44

## Edoxaban (tosylate monohydrate)
[1]; [9]
  Cholesterol-free: 0.765
[1]; [10]
  Complete: 0.9385
[1]; [19]
  Difference: 0.17
[2]; [22]
  Cholesterol-free media + simvastatin (0.04 μM): 1.271
[2]; drug in complete media
  Complete Media: 1.053
[2]; [20]
  Difference: −0.22

## CO/N=C(\C(=O)N[C@@H]1C(=O)N2C(C(=O)O)=C(CSc3nnnn3C)CS[C@H]12)c1csc(N)n1 [Cefmenoxime (hydrochloride)]
[1]; [8]
  Difference: −0.30
[1]; [3]
  Cholesterol-free: 1.225
[1]; NCI-H292 cells, complete media
  Complete: 0.93
[2]; [11]
  Cholesterol-free media + simvastatin (0.04 μM): 0.8027
[2]; [12]
  Complete Media: 0.7093
[2]; [7]
  Difference: −0.09

## Clc1ccc(C(OCCN2CCCCC2)c2ccccc2)cc1 (centres unmarked) [Cloperastine (hydrochloride)]
[1]; [8]
  Difference: −0.28
[1]; [3]
  Cholesterol-free: 1.087
[1]; NCI-H292 cells, complete media
  Complete: 0.8022
[2]; [11]
  Cholesterol-free media + simvastatin (0.04 μM): 1.648
[2]; [12]
  Complete Media: 1.547
[2]; [7]
  Difference: −0.10

## Hydrocortisone hemisuccinate
[1]; [21]
  Difference: −0.57
[1]; [16]
  Complete: 0.5102
[2]; [24]
  Cholesterol-free media + simvastatin (0.04 μM): 0.9423
[2]; [25]
  Complete Media: 1.019
[2]; [13]
  Difference: 0.08

## Fc1ccc(C(c2ccc(F)cc2)N2CCN(C/C=C/c3ccccc3)CC2)cc1 [Flunarizine (dihydrochloride)]
[1]; [8]
  Difference: 0.07
[1]; [9]
  Cholesterol-free: 0.971
[1]; [10]
  Complete: 1.036
[2]; [24]
  Cholesterol-free media + simvastatin (0.04 μM): 0.8172
[2]; [25]
  Complete Media: 0.8617
[2]; [13]
  Difference: 0.04

## CC1(C)O[C@@H]2C[C@H]3[C@@H]4CCC5=CC(=O)C=C[C@]5(C)[C@H]4[C@@H](O)C[C@]3(C)[C@]2(C(=O)CO)O1 [Desonide]
[1]; [8]
  Difference: −0.07
[1]; [9]
  Cholesterol-free: 0.6524
[1]; [10]
  Complete: 0.5811
[2]; [24]
  Cholesterol-free media + simvastatin (0.04 μM): 0.6303
[2]; [25]
  Complete Media: 0.7658
[2]; [13]
  Difference: 0.14

## CO[C@@]1(NC(=O)Cc2cccs2)C(=O)N2C(C(=O)O)=C(COC(N)=O)CS[C@@H]21 [Cefoxitin (sodium)]
[1]; [21]
  Difference: −0.48
[1]; [15]
  Cholesterol-free: 1.299
[1]; [16]
  Complete: 0.8161
[2]; [17]
  Cholesterol-free media + simvastatin (0.04 μM): 0.9202
[2]; [18]
  Complete Media: 0.8818
[2]; complete media minus cholesterol-free media + simvastatin (0.04 μM), >0 enhanced anti-cancer activity, about 0 neutral, <0 antagonist
  Difference: −0.04

## CC(C)(C)NC(=O)N[C@H](C(=O)N1C[C@H]2[C@@H]([C@H]1C(=O)NC(CC1CCC1)C(=O)C(N)=O)C2(C)C)C(C)(C)C (some centres unmarked) [Boceprevir]
[1]; [8]
  Difference: −0.30
[1]; [3]
  Cholesterol-free: 1.3
[1]; NCI-H292 cells, complete media
  Complete: 1.001
[2]; [11]
  Cholesterol-free media + simvastatin (0.04 μM): 1.494
[2]; [12]
  Complete Media: 1.414
[2]; [7]
  Difference: −0.08

## O=C(O)CSc1nnc(Br)n1-c1ccc(C2CC2)c2ccccc12 [Lesinurad (sodium)]
[1]; [9]
  Cholesterol-free: 0.8857
[1]; [10]
  Complete: 1.263
[1]; [23]
  Difference: 0.38
[2]; [11]
  Cholesterol-free media + simvastatin (0.04 μM): 0.8519
[2]; [12]
  Complete Media: 0.7365
[2]; [7]
  Difference: −0.12
